Assay [1] deals with ovarian steroidogenosis. The assay can be described thus: inhibitory activity on ovarian steroidogenosis in women (seric progesterone by radioimmunoassay). It is filed as in vivo. As to conditions: for seric level of progesterone, reduction compared to the controls: 500 μg intranasal at 8 A.M. and 5 P.M. of one luteal-phase day, typical case (sheet 3); for level of progesterone as % of pretreatment cycles (100%): 12 cycles. As for the experimental part: The study was conducted for 6 consecutive cycles consisting of 2 pretreatment cycles, 2 treatment cycles and 2 post-treatment cycles. […] Daily blood samples were taken between 4 and 6 P.M. to measure seric levels of LH, FSH, progesterone and estradiol which were determined by radioimmuno-logictests with double antibodies. The antibodies to measure LH and FSH were furnished by the National Pituitory Agency of N.I.H. of Bethesda, Md.
Estradiol and progesterone were measured with highly specific antibodies developed against 7-(0-carboxymethyl)-oxime of estradiol and 12-(0-carboxymethyl)-oxime of progesterone, respectively [3H] 17β-estradiol and ^125 I-progesterone-12-[0-carboxymethyl)-oxime]used as tracers. The serum was extracted with benzene and the steroids were separated with a LH-20 column before the determination. The radioimmunological results were exploited by the program derived from model II of Rodbard and Lewald as in Example 1 and the statistical significance was measured by the multiple level test of Ducan-Kramer of Example 1. The results shown in the graphs of sheets 3 to 5 of the Figures.

In assay [2] the test system is testicular steroidogensis. Kind of assay: inhibitory activity against testicular steroidogenesis in men in good health (seric LH, FSH and steroids by radioimmunoassay). It is filed as in vivo. As for the experimental part: The said product was administered intranasally at a dose of 500 μg in a few drops of distilled water at 8 A.M. on the third day of the test. For 2 days prior to the treatment and for 6 days after the treatment, samples of blood were taken daily at 8 A.M., 3 P.M. and 10 P.M. On the day of administration of the LH-RH agonist, blood samples were taken at 11 A.M. and 6 P.M.
The series concentrations of LH and FSH were measured by radioimmuno-logic dosages with double antibodies and the antibodies for measuring LH and FSH were furnished by the National Pituitary Agency of N.I.H. in Bethesda, Md. The seric concentrations of steroids was measured by radioimmuno-logic dosages in which one ml of serum was extracted with ether and the steroids were separated on a LH-20 column before measuring with radioimmuno-logic dosages. The radioimmuno-logic dosage results were determined by a program derived from model II of Rodbard et al [Second Karolinska Symposium on Research Methods in Reproductive Endrocrinology, Diczfalusky Editor, Copenhague (1970), p. 79-103]. The statistical significance was determined by the "multiple level test" of Duncan-Kramer [Kramer, Biometrics, Vol. 12 (1956), p. 307]. The results are shown in the graphs on sheet 1 of the Figures filed herewith.

Assay [3] concerns testicular steroidogenosis. The assay can be described thus: inhibitory activity on testicular steroidogenosis in a patient with prostate cancer. It is filed as in vivo, human. As to conditions: intranasal 500 μg twice a day. The text has this: The inhibitory activity of [D Ser (tbu)^6 des Gly NH2^10 ] […] The results are reported in the graphs of sheet 2 of the Figures.
[4] abbreviates: 12 cycles of treatment (sheet 5).

Structures are written as SMILES.

Consider `CCNC(=O)[C@@H]1CCCN1C(=O)[C@H](CCCNC(=N)N)NC(=O)[C@H](CC(C)C)NC(=O)[C@@H](COC(C)(C)C)NC(=O)[C@H](Cc1ccc(O)cc1)NC(=O)[C@H](CO)NC(=O)[C@H](Cc1c[nH]c2ccccc12)NC(=O)[C@H](Cc1c[nH]cn1)NC(=O)[C@@H]1CCC(=O)N1` [[D Ser (tbu)^6 des Gly NH2^10]LH-RH ethylamide], for which the “seric level of progesterone, reduction compared to the controls” value stood at 13% in assay [1] (first cycle of treatment) and 34% in assay [1] (second cycle of treatment). In assay [1] (setting [4]), the “level of progesterone, reduction compared to the controls” value was determined as 46%. Further, the “scale (range) of the level of progesterone compared to the controls” value in assay [1] (setting [4]) was in the range of 13 to 127%. Besides, the entries for the “level of progesterone as % of pretreatment cycles (100%)” value in assay [1] (cycles of post-treatment) and in assay [1] (cycles of treatment) were 99% and 46%, respectively. Also, the “day after administration on which the steroid level returned to normal” value in assay [2] (human, single intranasal dose 500 μg) is “fourth day”. In addition, in assay [2] (men, intranasal 500 μg), the “time to return of LH and FSH to normal levels after administration” value fell in the range of 8 to 12 h. The same compound gave a seric concentration of 17β-estradiol after the deferred elevation in assay [2] (men, intranasal 500 μg, day after treatment, different subjects, elevated from 20 to 35) of 100 to 250 pg/mL. For the same compound, the “seric concentration of pregnenolone, 17-OH-pregnenolone, progesterone, 17-OH-progesterone, Δ5-androstene-3β,17β-diol and testosterone on the day of treatment” value in assay [2] (men, intranasal 500 μg, day of treatment) was “increased”. Moreover, the “level of androgenic steroids in plasma” value in assay [3] is “diminution”. Further, the level of testosterone result in assay [3] (two weeks of treatment) is reported as “stabilized at a very low level”.

For the origin of these results see patent publication US4743589A, “Treatment of endometriosis” (Roussel UCLAF, priority 1979, dated 1988).
